Measurements: the supplement of paper PMC6045584
± gives the standard deviation of the averaged measurements.

Experiments:
MK-1775 = compound: C=CCn1c(=O)c2cnc(Nc3ccc(N4CCN(C)CC4)cc3)nc2n1-c1cccc(C(C)(C)O)n1 [MK-1775]; test: surviving fraction relative to DMSO-only wells; higher = less growth inhibition; conditions: exposure time: 5 days
Procedure, shortened: (§1)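 Tumour cell lines were grown to log phase and seeded at 250–500 cells per well in 384-well plates. They were exposed continuously to inhibitors at 0.5, 1, 5, 10, 50, 100, 500 and 1000 nM for five days, beginning 24 hours after seeding. Surviving fraction is CellTiter-Glo luminescence normalised to the median of DMSO-only wells.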

[1] = compound: C[C@@H]1CN(CC(=O)Nc2ccc3c(c2)Cc2cccc(-c4cc(=O)cc(N5CCOCC5)o4)c2S3)C[C@H](C)O1; test: as above; conditions: exposure time: 5 days
Procedure, shortened: as §1

Test System	surviving fraction (MK-1775; 0.5 nM)	surviving fraction (MK-1775; 1 nM)	surviving fraction (MK-1775; 5 nM)	surviving fraction (MK-1775; 10 nM)	surviving fraction (MK-1775; 50 nM)	surviving fraction (MK-1775; 100 nM)	surviving fraction (MK-1775; 500 nM)	surviving fraction (MK-1775; 1000 nM)	surviving fraction ([1]; 0.5 nM)	surviving fraction ([1]; 1 nM)	surviving fraction ([1]; 5 nM)	surviving fraction ([1]; 10 nM)	surviving fraction ([1]; 50 nM)	surviving fraction ([1]; 100 nM)	surviving fraction ([1]; 500 nM)	surviving fraction ([1]; 1000 nM)
HCC1395 BREAST	0.885 ± 0.071	1.169 ± 0.0022	1.03 ± 0.2	1.14 ± 0.12	0.935 ± 0.1	0.931 ± 0.12	0.741 ± 0.11	0.618 ± 0.083	0.955 ± 0.14	0.962 ± 0.022	0.936 ± 0.062	0.936 ± 0.035	0.92 ± 0.072	0.995 ± 0.08	0.919 ± 0.09	0.965 ± 0.12
HCC1806 BREAST	1.05 ± 0.047	0.996 ± 0.076	1.13 ± 0.032	1.02 ± 0.14	0.631 ± 0.082	0.303 ± 0.036	0.049 ± 0.0061	0.0403 ± 0.0015	1.05 ± 0.14	1.07 ± 0.086	1.12 ± 0.08	1.1 ± 0.035	0.959 ± 0.067	0.949 ± 0.12	0.699 ± 0.065	0.477 ± 0.024
HCC1954 BREAST	0.762 ± 0.1	0.775 ± 0.012	1.08 ± 0.13	0.8722 ± 0.0025	0.719 ± 0.017	0.625 ± 0.0078	0.203 ± 0.013	0.102 ± 0.0042	0.9487 ± 0.0025	0.93 ± 0.092	0.875 ± 0.086	1.03 ± 0.11	0.742 ± 0.01	0.771 ± 0.051	0.604 ± 0.09	0.504 ± 0.12
HCT15 LARGE INTESTINE	1.033 ± 0.0098	1.02 ± 0.032	1 ± 0.037	1.02 ± 0.035	1.05 ± 0.037	1 ± 0.05	0.521 ± 0.087	0.121 ± 0.0021	1.05 ± 0.017	1.04 ± 0.061	1.05 ± 0.05	1.05 ± 0.052	1 ± 0.066	1.01 ± 0.041	1.05 ± 0.052	1.08 ± 0.017
HELA CERVIX	1.04 ± 0.025	1.07 ± 0.045	1.02 ± 0.064	0.993 ± 0.059	1.15 ± 0.039	1.113 ± 0.0066	0.0972 ± 0.0083	0.0538 ± 0.0035	1.1 ± 0.048	1.06 ± 0.049	1.115 ± 0.011	1.06 ± 0.039	1.13 ± 0.03	1.11 ± 0.021	1.21 ± 0.029	1.22 ± 0.072
HOS BONE	1.02 ± 0.017	1.02 ± 0.011	1.05 ± 0.039	1.03 ± 0.027	1.027 ± 0.0056	0.98 ± 0.028	0.15 ± 0.019	0.065 ± 0.0027	1.03 ± 0.041	1.02 ± 0.032	1.06 ± 0.027	1.06 ± 0.05	1.02 ± 0.039	1.01 ± 0.022	0.988 ± 0.044	0.901 ± 0.048
HOSMNG BONE	1.04 ± 0.027	0.978 ± 0.061	0.935 ± 0.091	0.977 ± 0.11	1.01 ± 0.072	1.07 ± 0.063	0.143 ± 0.013	0.059 ± 0.0076	1 ± 0.065	0.944 ± 0.013	0.982 ± 0.051	0.978 ± 0.044	1.03 ± 0.011	0.9887 ± 0.0031	1.01 ± 0.043	0.998 ± 0.056
HSSYII SYNOVIAL	1.05 ± 0.034	1 ± 0.03	1.002 ± 0.0055	0.884 ± 0.012	0.628 ± 0.035	0.12 ± 0.0027	0.147 ± 0.064	0.0442 ± 0.0045	0.975 ± 0.027	0.956 ± 0.032	0.931 ± 0.015	0.99 ± 0.041	0.891 ± 0.011	0.867 ± 0.043	0.84 ± 0.055	0.74 ± 0.041
HT1080 SOFT TISSUE	1.02 ± 0.03	1.01 ± 0.017	0.992 ± 0.019	1.02 ± 0.023	0.638 ± 0.025	0.277 ± 0.012	0.113 ± 0.015	0.091 ± 0.0089	1.01 ± 0.026	1.04 ± 0.027	1.01 ± 0.04	1.02 ± 0.022	0.987 ± 0.054	1.01 ± 0.051	0.962 ± 0.016	0.846 ± 0.029
HU09 BONE	1.02 ± 0.088	0.916 ± 0.096	1.009 ± 0.01	0.99 ± 0.049	0.831 ± 0.14	0.518 ± 0.045	0.06 ± 0.005	0.0393 ± 0.0049	0.994 ± 0.096	0.996 ± 0.1	1.13 ± 0.061	1.1 ± 0.14	1.03 ± 0.12	1.42 ± 0.58	0.778 ± 0.065	0.763 ± 0.14
HUO3N1 BONE	0.979 ± 0.036	0.941 ± 0.032	1 ± 0.034	1.01 ± 0.039	0.995 ± 0.02	0.843 ± 0.041	0.348 ± 0.014	0.204 ± 0.015	1.01 ± 0.026	1 ± 0.031	1.05 ± 0.041	1.04 ± 0.041	1.04 ± 0.023	1.03 ± 0.025	0.979 ± 0.027	0.907 ± 0.026
JIMT1 BREAST	1.02 ± 0.021	0.987 ± 0.016	0.989 ± 0.01	0.991 ± 0.012	0.4405 ± 0.0039	0.227 ± 0.0077	0.0768 ± 0.0097	0.0532 ± 0.0013	0.91 ± 0.034	0.924 ± 0.022	0.936 ± 0.02	0.952 ± 0.031	0.956 ± 0.013	1 ± 0.038	0.971 ± 0.03	0.887 ± 0.024
JURKAT HAEMATOPOIETIC AND LYMPHOID TISSUE	1.09 ± 0.017	1.11 ± 0.016	1.08 ± 0.019	1.099 ± 0.0087	0.986 ± 0.038	0.772 ± 0.036	0.039 ± 0.001	0.039	1.1 ± 0.013	1.123 ± 0.0098	1.08 ± 0.016	1.09 ± 0.026	1.05 ± 0.026	1.03 ± 0.029	1.01 ± 0.018	0.96 ± 0.029
KPD BONE	0.945 ± 0.12	0.91 ± 0.02	0.971 ± 0.029	0.949 ± 0.031	0.954 ± 0.034	0.808 ± 0.039	0.293 ± 0.0046	0.175 ± 0.009	0.979 ± 0.039	0.946 ± 0.05	1.02 ± 0.047	1.01 ± 0.068	1 ± 0.092	1.01 ± 0.049	0.865 ± 0.02	0.7 ± 0.034
LM7 BONE	0.957 ± 0.1	0.947 ± 0.065	0.999 ± 0.12	0.982 ± 0.15	0.751 ± 0.013	0.506 ± 0.032	0.146 ± 0.016	0.0563 ± 0.0015	0.909 ± 0.046	0.946 ± 0.031	0.94 ± 0.048	1.09 ± 0.064	0.947 ± 0.052	0.896 ± 0.033	0.798 ± 0.063	0.78 ± 0.097
LNCAP PROSTATE	0.99 ± 0.088	0.951 ± 0.14	0.995 ± 0.082	0.921 ± 0.14	0.984 ± 0.065	0.544 ± 0.073	0.161 ± 0.012	0.0767 ± 0.013	1.08 ± 0.12	1.12 ± 0.15	1.11 ± 0.11	1.12 ± 0.16	1.4 ± 0.029	1.43 ± 0.095	1.4 ± 0.11	1.21 ± 0.15
MCF7 BREAST	0.886 ± 0.021	0.894 ± 0.013	0.864 ± 0.0098	0.873 ± 0.042	0.869 ± 0.052	0.856 ± 0.028	0.736 ± 0.014	0.602 ± 0.035	0.946 ± 0.053	0.874 ± 0.035	0.902 ± 0.033	0.888 ± 0.012	0.99 ± 0.058	0.955 ± 0.03	0.933 ± 0.019	1 ± 0.06
MDAMB134 BREAST	1.11 ± 0.1	1.02 ± 0.086	1.17 ± 0.039	1.075 ± 0.0064	1.08 ± 0.064	0.994 ± 0.047	0.752 ± 0.035	0.733 ± 0.0099	1.04 ± 0.082	0.967 ± 0.073	0.955 ± 0.11	0.926 ± 0.04	0.678 ± 0.16	0.714 ± 0.052	0.7305 ± 0.0021	0.63 ± 0.049
MDAMB157 BREAST	0.835 ± 0.1	0.95 ± 0.075	0.94 ± 0.075	0.966 ± 0.096	0.522 ± 0.045	0.278 ± 0.067	0.0617 ± 0.015	0.0613 ± 0.0072	0.905 ± 0.074	0.972 ± 0.025	1.01 ± 0.057	1.09 ± 0.059	1 ± 0.028	1.05 ± 0.046	0.896 ± 0.022	0.89 ± 0.093
MDAMB231 BREAST	1.01 ± 0.034	1 ± 0.037	1 ± 0.026	1 ± 0.04	1.01 ± 0.043	0.778 ± 0.028	0.155 ± 0.0079	0.146 ± 0.0047	0.965 ± 0.015	0.955 ± 0.016	0.993 ± 0.035	0.988 ± 0.023	0.955 ± 0.016	0.981 ± 0.021	0.73 ± 0.027	0.617 ± 0.025
MDAMB361 BREAST	0.862 ± 0.075	0.805 ± 0.039	0.875 ± 0.053	0.79 ± 0.053	0.68 ± 0.066	0.549 ± 0.047	0.478 ± 0.014	0.459 ± 0.015	0.778 ± 0.042	0.885 ± 0.074	0.776 ± 0.078	0.756 ± 0.083	0.591 ± 0.036	0.765 ± 0.056	0.548 ± 0.045	0.529 ± 0.071
